Laboratory results taken from patent US20210177941A1, “COMPOSITIONS FOR CHANGING BODY COMPOSITION, METHODS OF USE, AND METHODS OF TREATMENT” (Board of Supervisors of Louisiana State University and …, priority 2014, published 2021).
Ends that are not written are not given here.

Experiments:
IGF1R mRNA = IGF1R mRNA expression in RMS13 cells; assay type: cell-based, human; conditions: 24 h; pramlintide 1 mm, albuterol 0.25 mm, P/A 1 mm/0.25 μm
Protocol: (§1) Working in concert with UPS signaling is the myostatin pathway. By binding to ActRIIB, myostatin activates type-1 activin receptor serine kinases, ALK4 or ALK5, which phosphorylate Smads 2 and −3 (key biomarkers) to exert changes in gene transcription (above figure). […] To measure pathways regulating muscle atrophy and protein syntheses, the following key mRNA biomarkers were assayed: 1) Atrophy: MSTN, Atrogin-1, MuRF1, FoxO1, FoxO3, ALK4, Smad 1, Smad 3; 2) Anabolic: IGF1R, PGC1a, PGC1b, mitochondrial-FAM.
(§2) All RMS13 cells were treated for 24 hours with single or combination doses (n=10 each group). […] However, there was a strong trend for down regulation in P/A; […] treated cells for MuRF1 (34±7 vs. 22±5, p=0.068; PBS control vs. P/A; 1 mm/0.25 μm respectively) and Smad3 (91 ±9 vs. 73±9, p=0.055; PBS control vs. P/A; 1 mm/0.25 μm respectively).

PGC1a mRNA = PGC1a mRNA expression in RMS13 cells; assay type: cell-based, human; conditions: 24 h; pramlintide 1 mm, albuterol 0.25 mm, P/A 1 mm/0.25 μm
Protocol: as §1, §2

FoxO3 mRNA = FoxO3 mRNA expression in RMS13 cells; assay type: cell-based, human; conditions: 24 h; pramlintide 1 mm, albuterol 0.25 mm, P/A 1 mm/0.25 μm
Protocol: as §1, §2

[1] = test system: Atrogin-1, MuRF1, FoxO1, ALK4, Smad 1, Smad 3, PGC1b and TFAM mRNA; assay: myoblast transcriptome biomarker panel in RMS13 cells; assay type: cell-based, human; conditions: 24 h; albuterol 0.25 mm, pramlintide 1 mm, P/A 1 mm/0.25 μm
Protocol: as §1, §2

[2] = In Vivo Study 1: body weight and body composition by NMR, 8 weeks; parameters: species or system B6 mice; conditions: for muscle gain and body fat reduction: monotherapy: pramlintide 30 and 60 mg/kg/day, albuterol 24 mg/day
Protocol: Based on our in vitro experiments, we hypothesized that we could synergize muscle gain and improved biology with a combination of low doses of amylin (or agonist) and albuterol (or agonist). This study determined the effect of daily peripheral administration of pramlintide for 2-months on body weight, body composition and food intake in healthy, elderly mice.
Murine subjects were divided into seven treatment groups (total n=12): Group 1) SC […] vehicle (PBS); Group 2) SC 15 mg/kg/mouse of pramlintide; Group 3) SC 30 mg/kg/mouse of pramlintide; Group 4) SC 60 mg/kg/mouse of pramlintide; […]); Group 6) Albuterol 0.250 mg/kg. […]
The mice were housed in single cages with a 12:12 light cycle, and allowed ad libitum access to food and water throughout the experiment. On day-1 food was weighed and an amount sufficient to last weekly intervals was provided. For the first two-weeks, food intake and body weight were monitored daily and thereafter biweekly for the remainder of the experiment. Body composition by NMR-spectroscopy was the primary endpoint, measured at Day-1 and at the end of the protocol (8-weeks). At Day-5, the mice were randomized to treatment and control groups, such that each group had the same mean body weight. Mice were allowed to acclimate for 5-days to being the sole mouse in the cage. Each day mice were dosed 1 hour after lights on, and the 2nd dosing two hours prior to lights out when mice initiate feeding. Pramlintide was taken directly from the FDA-approved Symlin drug (pramlintide acetate) obtained through the Pennington Biomedical Research Center (PBRC) pharmacy. Final injection volumes were […] for vehicle or drugs. Symlin was supplied as a sterile drug at 0.6 mg/ml. All doses were adjusted according to this concentration.
Food intake in grams was measured manually each 24 hours. Body Composition was determined via NMR using a Bruker mini-spec system designed for rat or mouse. Animals were transported in microisolater covered cages to the designated room containing the NMR. […]

[3] = 7-week placebo controlled study in young, healthy BL-male mice; assay type: in vivo; conditions: for lean body mass (LBM): all treatment-arms (Gr 2-7); for bodyweight from baseline and relative to placebo control: pramlintide 30 and 60 mg/kg (Gr 3, 4), Salbutamol 24 mg (Gr 5), combinations (Gr 6, 7)
Protocol: In a recent pharmacology assessment in young, healthy BL-male mice, we completed a 7-week placebo controlled (Gr 1) study with treatment-arms that included the use of pramlintide alone at low (Gr 2. 15 mg/kg); mid (Gr 3. 30 mg/kg) and high (Gr 4. 60 mg/kg) or Salbutamol alone (Gr 5. 24 mg) or combined with Pramlintide (Gr 6. 15 mg/kg +12 mg of Salbutamol; Gr 7. 30 mg/kg +12 mg of Salbutamol).

myostatin mRNA = myostatin mRNA expression in RMS13 cells; assay type: cell-based, human
Protocol: as §1, §2
Pramlintide is chiefly used as an adjunct […] in type 1 and type 2 diabetes to help manage glycemia. The action of the two hormones complements one another to better control glucose metabolism and energy balance. We investigated whether pramlintide with or without insulin could modulate myostatin (key biomarker) mRNA. […] This negative result provides important rationale for both preclinical and clinical study designs (see below). Amylin is thought to function as a neuroendocrine hormone (Young, 1997) and has been shown over many decades to have an effect of lowering food intake. When given intracerebroventricularly (icv), amyl in reduces food intake and body weight in rodents in a dose-dependent manner (Rushing et al., 2001). […] Amylin is thought to regulate energy balance by inhibiting postprandial glucagon secretion and slowing the rate of nutrient delivery to the small intestine via an effect on gastric emptying. The rate of gastric emptying also plays a major role in blood glucose homeostasis in normal subjects by controlling the delivery of carbohydrate to the small intestine and the regulation of body weight (Reda et al., 2002). It has been proposed that amylin's effect on gastric emptying may be exerted via a central mechanism involving specific binding sites in the area postrema of the brain stem (Cline et al., 2008), and that the effect is mediated by the vagus nerve rather than a direct action on the stomach and digestion (D'Este et al., 1995; Maev and Dicheva, 2003). We have previously shown that the use of modified-pharmaceutical grade cellulose is able to dramatically slow the rate of gastric emptying and improve the lean-to-fat ratio in mice (Islam et al., 2012).
Calcitonin can be used therapeutically for the treatment of hypercalcemia or osteoporosis. Both calcitonin and amylin bind the same trimetric-calcitonin-ramp-receptor. An increased incidence of pituitary adenomas has been reported in rats given synthetic salmon calcitonin for 1 year. Calcitonin may be used diagnostically as a tumor marker for medullary thyroid cancer; also, elevated levels after surgery may indicate recurrence. Calcitonin may even be assayed in biopsy samples from suspicious lesions (e.g., lymph nodes that are swollen) to establish whether they are a metastasis of the original cancer (Bruera and Fainsinger, 1997; Busquets et al., 2012b). We next examined the dose-dependence relationship between the concentration of calcitonin and myostatin mRNA expression.

myostatin secretion = myostatin secretion into RMS13 myoblast culture media; assay type: cell-based, human; conditions: pramlintide 1 mm (p=0.061); P/A 1 mm/0.25 mm (p<0.05, greatest suppression)
Text: Myostatin's main sites of actions are muscle and bone in a catabolic fashion. Both IGF1 and amylin have roles in regulating osteoblast-bone proliferation (Cornish et al., 2004; Cornish and Naot, 2002) and muscle mass. […] Although not intending to be bound by theory, we hypothesize that amylin alone and in combination with albuterol is able to directly suppress myostatin secretion in myoblasts.

human myoblast = human myoblast treated 24 h with pramlintide, biomarkers; assay type: cell-based; conditions: 24 h pramlintide
Text: Although not intending to be bound by theory, we hypothesize the amylin pathway has a role in the regulation of muscle mass in mammals and the use of pramlintide will result in improved body composition and increase muscle mass in healthy humans by lowering the production of myostatin and increasing protein synthesis via mTOR activation.

[4] = in vivo; cited from earlier work
[5] = test system: mammalian target of rapamycin (mTOR); assay: mTOR activation in human myoblast RMS13 cells; assay type: cell-based; conditions: pramlintide alone at 1 and 5 mm, 24 h, both p<0.05
Text: We first examined the association between a pramlintide and albuterol formulation (single and combination dosing) on the activity of the mammalian target of rapamycin (mTOR) in a human myoblast cell model derived from RMS13 cells (purchased from ATCC, Manassas, Va., USA). mTOR is a highly conserved kinase that exists in two functional complexes, TOR complex 1 (TORC1) and TOR complex 2 (TORC2), that are conserved from yeast to mammals. Given its high conservation across species, mTOR serves as a key biomarker for protein synthesis. mTOR (TORC1 and TORC 2) is a master kinase that is crucial for cell growth and is a chief enzyme in protein synthesis (Otulakowski et al., 2007). Determining optimal ratios and concentrations of each drug (in single or combination) was an important first step to guide the mechanism of action biomarker studies. This initial study was undertaken for 24 and 48 hours; only the 24-hour results are shown (n=6 each group).

[6] = 24 h, pramlintide 1 mm, albuterol 0.25 mm, P/A 1 mm/0.25 μm
[7] = calcitonin dose-dependence, pramlintide 5 mm, p<0.05

| Molecule | IGF1R mRNA expression (IGF1R mRNA) | PGC1a mRNA expression (PGC1a mRNA) | FoxO3 mRNA expression (FoxO3 mRNA) | Atrogin-1, MuRF1, FoxO1, ALK4, Smad 1, Smad 3, PGC1b and TFAM mRNA [1] | muscle gain and body fat reduction [2] | lean body mass (LBM) [3] | bodyweight from baseline and relative to placebo control [3] | myostatin mRNA expression (myostatin mRNA; [6]) | myostatin mRNA expression (myostatin mRNA; [7]) | myostatin mRNA, pramlintide with or without insulin (myostatin mRNA; co-incubation of insulin with pramlintide) | myostatin secretion into myoblast culture media (myostatin secretion) | myostatin and FoxO-1/-3 mRNA (human myoblast) | pro-anabolic targets (PGC1a, calcineurin mRNA and AkT and mTOR-activity) (human myoblast) | drop in body weight within the first week ([2]; pramlintide 60 mg/kg/day (Group 4)) [%] | T-1/2-life [4] [min] | mTOR activation [5] |
| --- | --- | --- | --- | --- | --- | --- | --- | --- | --- | --- | --- | --- | --- | --- | --- | --- |
| CC(C)(C)NCC(O)c1ccc(O)c(CO)c1 (stereo not shown) [albuterol] | up regulated | up regulated | down regulated | no change | Statistical improvements in muscle gain and body fat reduction | significantly increased | significant increases in bodyweight | no effect |  |  |  |  |  |  |  |  |
| calcitonin (CGNLSTCMLGTYTQDFNKFHTFPQTAIGVGAP; ends and bridges not checked; cysteine pairing not given here; UniProt P01258 85-116, looked up) |  |  |  |  |  |  |  |  | did not modulate myostatin mRNA |  |  |  |  |  |  |  |
| insulin |  |  |  |  |  |  |  |  |  | no additive benefit |  |  |  |  |  |  |
| pramlintide acetate | up regulated | up regulated | significantly lowered | no change | Statistical improvements in muscle gain and body fat reduction | significantly increased | significant increases in bodyweight | significantly lowered | able to lower myostatin mRNA |  | lowered myostatin secretion | down regulation of myostatin | elevation of pro-anabolic targets | −5 | ~45 | induced mTOR activation |
